Reference: US8232273B2, “Heterocyclic compounds and methods of use” (Genentech, Inc., priority 2008, dated 2012)
pEC50, pIC50, pKi: −log10 of the molar value.

Columns and labels:
[1] = biological target: T1, Bcl-xL (GST-Bcl-xL) (Homo sapiens, UniProt Q07817); assay: TR-FRET binding assay, competition with F-Bak for the Bcl-xL binding site; settings: values listed in the order of Table 1, read-out: TR-FRET assay results (Ki), Bcl-xL
[2] = biological target: T2, Bcl-2 (GST-Bcl-2) (Homo sapiens, UniProt P10415); assay: TR-FRET binding assay, competition with F-Bak for the Bcl-2 binding site; settings: Bcl-2, for comparison (selectivity)
T2 construct: made in house
Protocol: For each assay plate, a probe/antibody and protein/antibody/probe mixture were included as a negative and a positive control, respectively. Fluorescence was measured on the Envision (Perkin Elmer) using a 340/35 nm excitation filter and 520/525 (F-Bak) and 495/510 nm (Tb-labeled anti-his antibody) emission filters. Dissociation constants (Ki) were determined using Wang's equation (see, Wang, Z. X. An exact mathematical expression for describing competitive binding of two different ligands to a protein molecule. FEBS Lett. 1995 360:111-114). The TR-FRET assay can be performed in the presence of varying concentrations of human serum (HS) or fetal bovine serum (FBS). For comparison, the measurement of the competition of compounds of the invention for other Bcl-2 family protein binding sites (e.g., Bcl-2, Mcl-1) using the TR-FRET binding assay was accomplish by substituting GST-Bcl-xL in the TR-FRET assay with other GST-labeled protein, e.g., GST-Bcl-2, GST-Mcl-1, prepared in-house.

[3] = tested on: Mcl-1-/- mouse embryonic fibroblasts (MEF); assay: Cell viability assay for Mcl-1-/- mouse embryonic fibroblasts (CellTiter-Glo); format: cell-based; settings: Fibroblast, in the presence of 10% Fetal Bovine Serum, read-out: MEF Mcl-1-/- KO cell viability results (EC50)
Text: a. Cell Viability Assay for Mcl-1^−/− Mouse Embryonic Fibroblasts (MEF): […]
In this assay, Mcl-1^(−/−) cells were used to confirm that cell apoptosis in the presence of BH3 mimetic small molecules was due to predominantly Bcl-xL inactivation. This inactivation leaves Bax/Bak unconstrained and results in apoptosis. The […]-GLO Luminescent Cell Viability Assay is a homogeneous method of determining the number of viable cells in culture based on quantitation of the ATP present. The amount of ATP correlates with the presence of metabolically active cells such that following cell lysis the amount of ATP present is proportional to the amount of luminescence measured.
Mcl-1^(−/−) mouse embryonic fibroblasts (MEFs) are an adherent cell line prepared in house. MEFs were grown in Iwaki 75 cm^2 tissue culture flasks (cat #3123-075) with FMA media which consists of • 89% DME Kelso • 10% heat-inactivated foetal calf serum (FCS) (Hyclone cat #SH30396.03) • 1% 10 mM asparagine (Fluka cat #11149) • 275 μl of a 1:2000 dilution of 2-mercaptoethanol is added to the final 500 ml volume of FMA (Sigma cat #M7522; diluted in MT-PBS)
FMA was stored at 4° C. and used at 37° C. MEFs were cultured in FMA media and harvested in MT-PBS and trypsin. For MEF cell viability assays, cells were seeded separately in plates with 10% FCS-FMA and 1% FCS-FMA.
Assays were performed using white, flat clear-bottom Greiner 384-well tissue culture grade (Interpath #781098) plates. The compounds were made up in Matrical 384-well, 25 μl V-bottomed plates (cat #MP101-2-PP), sealed with aluminium foil from Beckman Coulter (cat #538619) and stored at 12° C. overnight. Compound preparation and titrations were performed in AnalaR grade DMSO (Merck cat #1.02952.2500). The cell viability detection assay used was […]-GLO™ which is commercially available from Promega (cat #G7572), stored at −20° C. and used at 37° C.
Compounds of the invention were prepared as 10 mM solution in 100% DMSO and stored at −20° C. Compounds were thawed to room temperature and dispensed into a 384 well Matrical plate. Standard control compounds, e.g. 32.3 mM Etoposide, were added to the plate as controls.
The media was aspirated and the Mcl-1^(−/−) cells washed with 10 mls of warmed MT-PBS. MT-PBS was aspirated and 1 ml of trypsin was added. The T75 flasks were incubated at 37° C. until the cells became detached. 4 ml of 10% FCS FMA media was added to the trypsinized cells and the entire volume was transferred to a 50 ml centrifuge tube and centrifuged for 3 minutes at 250 g. The supernatant was aspirated and the pellet resuspended in 10 ml of 10% FCS FMA. 3 ml of this cell suspension was added to a clean 75 cm^2 flask containing 17 ml of 10% FCS FMA media, thus performing a 3:10 split. The remaining cell suspension was used to perform a 1:50 split into another 75 cm^2 flask for further culturing.
Cells were harvested as per method step 1 and the pellet resuspended in 3 mls 10% FCS FMA. Cell number was determined by counting in a Neubauer haemocytometer and the dilution calculated to achieve a density of 1×10^4 cells ml^−1 (500 cells per well in 50 μl media). Separate dilutions were prepared in 50 ml 10% FCS FMA and 50 ml 1% FCS FMA solutions respectively.
Four assay plates were set up per compound plate. Two 384 well plates containing Mcl-1^(−/−) cells in 10% FCS FMA and the other two plates containing Mcl-1^(−/−) cells in 1% FCS FMA.
Using the Multidrop, 25 μl cells were dispensed aseptically into all 384 wells of the assay plates. Plates were left to rest in a non-stacked layer at room temperature for approximately 30 minutes (minimizes edge-effects) and then were placed as a single layer in the 37° C. incubator. The plates were left to incubate overnight.
The compound plates were titrated by performing a 3-fold 11-point dilution series using 100% DMSO on the MiniTrak. Following titration of the compounds, 100 nl of compounds were added to the cell plates using the Zymark Sciclone Pintool. […]

[4] = tested on: platelets; assay: Cell viability assay for platelets (platelet rich plasma, CellTiter-Glo); format: cell-based; settings: approximately 4 hours at 37 C
Protocol: Platelet rich plasma (PRP) was incubated with a compound of the invention for approximately 4 hours at 37° C. After incubation, platelets were equilibrated to room temperature for 20 minutes and then and equal volume of CELL TITER-GLO™ reagent (Promega Corporation) was added. Samples were mixed for two minutes and then allowed to equilibrate for an additional 10 minutes at room temperature. The luminescence generated from the samples was quantitated using a LJL Analyst plate reader. Data analysis was performed using GraphPad Prism 4.0.

[5] = biological target: T1, Bcl-xL (GST-Bcl-xL); assay: AlphaScreen Bcl-xL binding assay, competition with biotinylated Bim peptide; parameters: made in house; settings: values listed in the order of Table 1; read-out: Alphascreen results (IC50) against the Bcl-xL protein
Procedure, shortened: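 Acceptor beads with GST-Bcl-xL were combined with donor beads carrying biotinylated Bim peptide after each bead mix was preincubated 30 min at room temperature. Compounds in DMSO, 2-fold serially diluted, were incubated 30 min at room temperature before donor addition, with duplicate plates. Percent inhibition was taken against no-protein and DMSO controls, and IC50 was calculated.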

T1 sequence (Q07817 whole entry, species assumed): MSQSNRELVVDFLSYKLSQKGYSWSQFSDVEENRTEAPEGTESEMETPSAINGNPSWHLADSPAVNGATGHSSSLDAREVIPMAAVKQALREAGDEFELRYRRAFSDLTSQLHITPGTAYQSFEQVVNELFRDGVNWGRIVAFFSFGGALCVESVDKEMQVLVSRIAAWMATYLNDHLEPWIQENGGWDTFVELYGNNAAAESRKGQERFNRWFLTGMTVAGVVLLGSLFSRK
T2 sequence (P10415 whole entry, species assumed): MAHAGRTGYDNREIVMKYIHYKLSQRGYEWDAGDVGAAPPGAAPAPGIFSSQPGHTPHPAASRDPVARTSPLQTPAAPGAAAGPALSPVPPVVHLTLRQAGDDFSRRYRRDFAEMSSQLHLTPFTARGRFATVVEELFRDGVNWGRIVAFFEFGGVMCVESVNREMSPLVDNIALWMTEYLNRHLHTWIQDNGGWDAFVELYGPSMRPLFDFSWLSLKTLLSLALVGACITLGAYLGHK

CN(C)CCCc1ccc(OCCCc2ccc(N3CCc4cccc(C(=O)Nc5nc6ccccc6s5)c4C3)nc2C(=O)O)c(F)c1 [Example 100, 6-[8-(Benzothiazol-2-ylcarbamoyl)-3,4-dihydro-1H-isoquinolin-2-yl]-3-{3-[4-(3-dimethylamino-propyl)-2-fluoro-phenoxy]-propyl}-pyridine-2-carboxylic acid]
pKi [1]: 9.30 | pKi [2]: 6.66 | pEC50 [3]: 6.40

O=C(Nc1nc2ccccc2s1)c1cccc2c1CN(c1nc(C(=O)O)c(CCCOc3ccc(OCCN4CCOCC4)cc3)s1)CC2 [Example 88, 2-[8-(Benzothiazol-2-ylcarbamoyl)-3,4-dihydro-1H-isoquinolin-2-yl]-5-{3-[4-(2-morpholin-4-yl-ethoxy)-phenoxy]-propyl}-thiazole-4-carboxylic acid]
pKi [1]: 10.30 | pEC50 [4]: 8.52 | pKi [2]: 6.52 | pEC50 [3]: 7.55

O=C(Nc1nc2ccccc2s1)c1cccc2c1CN(c1nc(C(=O)O)c(CCCOc3ccc(-c4ncccn4)cc3)s1)CC2 [Example 81, 2-[8-(Benzothiazol-2-ylcarbamoyl)-3,4-dihydro-1H-isoquinolin-2-yl]-5-[3-(4-pyrimidin-2-yl-phenoxy)-propyl]-thiazole-4-carboxylic acid]
pKi [1]: 10.30 | pKi [2]: 6.96 | pEC50 [3]: 8.00

O=C(Nc1nc2ccccc2s1)c1cccc2c1CN(c1ccc(CCCOc3ccc(-c4ncccn4)cc3)c(C(=O)O)n1)CC2 [Example 96, 6-[8-(Benzothiazol-2-ylcarbamoyl)-3,4-dihydro-1H-isoquinolin-2-yl]-3-[3-(4-pyrimidin-2-yl-phenoxy)-propyl]-pyridine-2-carboxylic acid]
pKi [1]: 10.00 | pEC50 [4]: 6.45

O=C(Nc1nc2ccccc2s1)c1cccc2c1CN(c1nc(C(=O)O)c(CCCOc3ccc(-c4csc5c(NCCCN6CCCC6)ncnc45)cc3)s1)CC2 [Example 78, 2-[8-(Benzothiazol-2-ylcarbamoyl)-3,4-dihydro-1H-isoquinolin-2-yl]-5-(3-{4-[4-(3-pyrrolidin-1-yl-propylamino)-thieno[3,2-d]pyrimidin-7-yl]-phenoxy}-propyl)-thiazole-4-carboxylic acid]
pKi [1]: 10.30 | pEC50 [4]: 8.52

N#Cc1ncccc1-c1ccc(OCCCc2sc(N3CCc4cccc(C(=O)Nc5nc6ccccc6s5)c4C3)nc2C(=O)O)cc1 [Example 58, 2-[8-(Benzothiazol-2-ylcarbamoyl)-3,4-dihydro-1H-isoquinolin-2-yl]-5-{3-[4-(2-cyano-pyridin-3-yl)-phenoxy]-propyl}-thiazole-4-carboxylic acid]
pKi [1]: 9.30 | pKi [2]: 6.51 | pEC50 [3]: 5.89

O=C(Nc1nc2ccccc2s1)c1cccc2c1CN(c1nc(C(=O)O)c(CCCOc3ccc(N4CCNCC4)cc3)s1)CC2 [Example 64, 2-[8-(Benzothiazol-2-ylcarbamoyl)-3,4-dihydro-1H-isoquinolin-2-yl]-5-[3-(4-piperazin-1-yl-phenoxy)-propyl]-thiazole-4-carboxylic acid]
pKi [1]: 10.30 | pKi [2]: 7.05 | pEC50 [3]: 6.51

CN1CCN(c2cccc(OCCCc3sc(N4CCc5cccc(C(=O)Nc6nc7ccccc7s6)c5C4)nc3C(=O)O)c2)CC1 [Example 87, 2-[8-(Benzothiazol-2-ylcarbamoyl)-3,4-dihydro-1H-isoquinolin-2-yl]-5-{3-[3-(4-methyl-piperazin-1-yl)-phenoxy]-propyl}-thiazole-4-carboxylic acid]
pKi [1]: 10.30 | pEC50 [4]: 8.52

CN(C)CCCNc1ncnc2c1cnn2-c1ccc(OCCCc2sc(N3CCc4cccc(C(=O)Nc5nc6ccccc6s5)c4C3)nc2C(=O)O)cc1 [Example 54, 2-(8-(benzo[d]thiazol-2-ylcarbamoyl)-3,4-dihydroisoquinolin-2(1H)-yl)-5-(3-(4-(4-(3-(dimethylamino)propylamino)-1H-pyrazolo[3,4-d]pyrimidin-1-yl)phenoxy)propyl)thiazole-4-carboxylic acid]
pKi [1]: 10.30 | pEC50 [4]: 6.88

N#Cc1nccnc1-c1ccc(OCCCc2sc(N3CCc4cccc(C(=O)Nc5nc6ccccc6s5)c4C3)nc2C(=O)O)cc1 [Example 86, 2-[8-(Benzothiazol-2-ylcarbamoyl)-3,4-dihydro-1H-isoquinolin-2-yl]-5-{3-[4-(3-cyano-pyrazin-2-yl)-phenoxy]-propyl}-thiazole-4-carboxylic acid]
pKi [1]: 10.15 | pEC50 [4]: 8.00

CN1CCN(c2ccc(OCCCc3ccc(N4CCc5cccc(C(=O)Nc6nc7ccccc7s6)c5C4)nc3C(=O)O)cc2)CC1 [Example 94, 6-[8-(Benzothiazol-2-ylcarbamoyl)-3,4-dihydro-1H-isoquinolin-2-yl]-3-{3-[4-(4-methyl-piperazin-1-yl)-phenoxy]-propyl}-pyridine-2-carboxylic acid]
pKi [1]: 8.70 | pKi [2]: 6.24 | pEC50 [3]: 6.35

CN(C)CCOc1ccc(-c2ccc(OCCCc3ccc(N4CCc5cccc(C(=O)Nc6nc7ccccc7s6)c5C4)nc3C(=O)O)cc2)nc1 [Example 95, 6-[8-(Benzothiazol-2-ylcarbamoyl)-3,4-dihydro-1H-isoquinolin-2-yl]-3-(3-{4-[5-(2-dimethylamino-ethoxy)-pyridin-2-yl]-phenoxy}-propyl)-pyridine-2-carboxylic acid]
pKi [1]: 10.30 | pEC50 [4]: 8.52

CN(C)CCOc1ccc(OCCCc2sc(N3CCc4cccc(C(=O)Nc5nc6ccccc6s5)c4C3)nc2C(=O)O)cc1 [Example 75, 2-[8-(Benzothiazol-2-ylcarbamoyl)-3,4-dihydro-1H-isoquinolin-2-yl]-5-{3-[4-(2-dimethylamino-ethoxy)-phenoxy]-propyl}-thiazole-4-carboxylic acid]
pKi [1]: 10.30 | pEC50 [4]: 8.05 | pIC50 [5]: 10.00
